This is an account of results in patent US9290503B2, “Tricyclic compound derivatives useful in the treatment of neoplastic diseases, inflammatory disorders and immunomodulatory disorders” (CHEMBRIDGE CORPORATION, priority 2006, dated 2016).

Common to all, as to type: cell-based
One assay concerns RPMI-8226. The assay can be described thus: Cell proliferation assay, MTT, RPMI-8226. The settings on record: Homo sapiens, RPMI-8226, 72 h, standard 3-day proliferation assay. An excerpt: (§1) IGF1R and other tyrosine kinase inhibitors can inhibit the proliferation of certain cancer cell lines indicating their possible therapeutic utility for treating the corresponding cancer types. Cancer cell lines of interest and control normal lines, including CHO, HEK293, BA/F3, COLO205, PC3, DU145, MCF7, Panc1, ACHN, Hep G2, H460, K562, TT, U87-MG, CAOV-3, SK-MEL5, Karpas 299 and human multiple myeloma cell lines H929, MM1s, MM1r, UTMC2, CPM2, KMS11, My5, KMS12PE, My7, JJN3, KMS18, U266, SKMM2, RPMI-8226 are plated in white, clear-bottomed 384-well cell culture plates at 2500-5000 cells per well and supplied with dilutions of tested compounds After a desired period of time (typically 3 days), the number of viable cells is quantitated by using Cell Titer-Glo Luminescent Cell Viability Assay (Promega), a cell proliferation assay system based on detection of total amount of ATP present as a measure of cell metabolic activity. The plated cells are mixed with the Cell Titer-Glo developing reagent and counted in a luminescence multiwell plate reader according to the standard manufacturer's protocol to generate IC50 curves for cell proliferation inhibition. […] Alternatively, viable cells are quantitated by using the conventional colorimetric MTT assay. […] The formazan is then solubilized, and the concentration determined by optical density at 570 nm. […]

A further assay concerns CPM2. The assay can be described thus: Cell proliferation assay, MTT, CPM2. As to conditions: Homo sapiens, 72 h, standard 3-day proliferation assay.
Excerpt: as §1

In assay [1] the test system is CHO (chinese hamster ovary). The assay can be described thus: Cell proliferation assay, MTT, CHO. The settings on record: Cricetulus griseus, 72 h, standard 3-day proliferation assay.
Excerpt: as §1

The next assay deals with UTMC2. The assay can be described thus: Cell proliferation assay, MTT, UTMC2. The settings on record: Homo sapiens, UTMC2, 72 h, standard 3-day proliferation assay.
Excerpt: as §1

Assay [2] deals with HEK293 (human normal embryonic kidney). The assay can be described thus: Cell proliferation assay, MTT, HEK293. As to conditions: HEK293, 72 h, standard 3-day proliferation assay, read-out: HEK IC50.
Excerpt: as §1

The test system of a further assay is H929. The assay can be described thus: Cell proliferation assay, MTT, H929. The settings on record: Homo sapiens, NCI-H929, 72 h, standard 3-day proliferation assay.
Excerpt: as §1

The subject of the next assay is KMS11. The assay can be described thus: Cell proliferation assay, MTT, KMS11. The settings on record: Homo sapiens, KMS-11, 72 h, standard 3-day proliferation assay.
Excerpt: as §1

A further assay concerns My7. The assay can be described thus: Cell proliferation assay, MTT, My7. As to conditions: Homo sapiens, 72 h, standard 3-day proliferation assay.
Excerpt: as §1

For the next assay, the system named is JJN3. The assay can be described thus: Cell proliferation assay, MTT, JJN3. The settings on record: Homo sapiens, JJN-3, 72 h, standard 3-day proliferation assay.
Excerpt: as §1

Another assay deals with MM1s. The assay can be described thus: Cell proliferation assay, MTT, MM1s. As to conditions: Homo sapiens, MM1.S, 72 h, standard 3-day proliferation assay.
Excerpt: as §1

The subject of the next assay is My5. The assay can be described thus: Cell proliferation assay, MTT, My5. As to conditions: Homo sapiens, 72 h, standard 3-day proliferation assay.
Excerpt: as §1

The subject of another assay is KMS18. The assay can be described thus: Cell proliferation assay, MTT, KMS18. As to conditions: Homo sapiens, KMS18, 72 h, standard 3-day proliferation assay.
Excerpt: as §1

The next assay has as its system KMS12PE. The assay can be described thus: Cell proliferation assay, MTT, KMS12PE. The settings on record: Homo sapiens, KMS-12-PE, 72 h, standard 3-day proliferation assay.
Excerpt: as §1

In a further assay the test system is SKMM2. The assay can be described thus: Cell proliferation assay, MTT, SKMM2. The settings on record: Homo sapiens, SK-MM-2, 72 h, standard 3-day proliferation assay.
Excerpt: as §1

For another assay, the system named is U266. The assay can be described thus: Cell proliferation assay, MTT, U266. As to conditions: Homo sapiens, U-266, 72 h, standard 3-day proliferation assay.
Excerpt: as §1

The subject of a further assay is MM1r. The assay can be described thus: Cell proliferation assay, MTT, MM1r. As to conditions: Homo sapiens, MM.1R, 72 h, standard 3-day proliferation assay.
Excerpt: as §1

In another assay the target is T1, IGF1 receptor (Homo sapiens, UniProt P08069).
T1 construct: MCF7 human breast cancer cells expressing IGF1 receptor; endogenous in cells; host or cells: MCF7 human breast cancer cells
The assay can be described thus: ELISA-based assay of IGF1 receptor autophosphorylation inhibition in cells. The settings on record: MCF7 cells, read-out: MCF7 IGF1R Phosphorylation IC50. How it is done:
In another embodiment, compounds that interact with the IGF1R kinase domain are tested in a cell-based assay system. In accordance with this embodiment, cells expressing a full-length IGF1 receptor or a fragment thereof containing the IGF1R kinase domain, are contacted with a candidate or a control compound and the ability of the compound to block tyrosine kinase activity of IGF1R within a cell is determined. This assay may be used to screen a single compound or a large library of candidate compounds. […] The ability of the candidate compound to inhibit IGF1R kinase activity can be determined by methods known to those skilled in the art. For example, the inhibition can be determined by ELISA-type assay or Western blot analysis with cell lysates or immunoprecipitated IGF1R receptor using various anti-IGF1R and anti-phosphotyrosine antibodies.
In general, cells expressing IGF1R are treated with modulators (i.e., inhibitors or activators) of IGF1R kinase activity and cell lysates are produced from these treated cells. IGF1Rs are isolated from the lysate by immunoprecipitation and analyzed for phosphotyrosine content. Alternatively, or in addition, cellular protein substrates phosphorylated by IGFR may be immunoprecipitated from the lysates and their degree of tyrosine phosphorylation determined. […]
(In an ELISA, binding on a coated surface is turned into a signal by an enzyme label.)

Each structure is given as a SMILES string. pIC50: −log10 of the molar value.

T1 sequence (P08069 31-1367): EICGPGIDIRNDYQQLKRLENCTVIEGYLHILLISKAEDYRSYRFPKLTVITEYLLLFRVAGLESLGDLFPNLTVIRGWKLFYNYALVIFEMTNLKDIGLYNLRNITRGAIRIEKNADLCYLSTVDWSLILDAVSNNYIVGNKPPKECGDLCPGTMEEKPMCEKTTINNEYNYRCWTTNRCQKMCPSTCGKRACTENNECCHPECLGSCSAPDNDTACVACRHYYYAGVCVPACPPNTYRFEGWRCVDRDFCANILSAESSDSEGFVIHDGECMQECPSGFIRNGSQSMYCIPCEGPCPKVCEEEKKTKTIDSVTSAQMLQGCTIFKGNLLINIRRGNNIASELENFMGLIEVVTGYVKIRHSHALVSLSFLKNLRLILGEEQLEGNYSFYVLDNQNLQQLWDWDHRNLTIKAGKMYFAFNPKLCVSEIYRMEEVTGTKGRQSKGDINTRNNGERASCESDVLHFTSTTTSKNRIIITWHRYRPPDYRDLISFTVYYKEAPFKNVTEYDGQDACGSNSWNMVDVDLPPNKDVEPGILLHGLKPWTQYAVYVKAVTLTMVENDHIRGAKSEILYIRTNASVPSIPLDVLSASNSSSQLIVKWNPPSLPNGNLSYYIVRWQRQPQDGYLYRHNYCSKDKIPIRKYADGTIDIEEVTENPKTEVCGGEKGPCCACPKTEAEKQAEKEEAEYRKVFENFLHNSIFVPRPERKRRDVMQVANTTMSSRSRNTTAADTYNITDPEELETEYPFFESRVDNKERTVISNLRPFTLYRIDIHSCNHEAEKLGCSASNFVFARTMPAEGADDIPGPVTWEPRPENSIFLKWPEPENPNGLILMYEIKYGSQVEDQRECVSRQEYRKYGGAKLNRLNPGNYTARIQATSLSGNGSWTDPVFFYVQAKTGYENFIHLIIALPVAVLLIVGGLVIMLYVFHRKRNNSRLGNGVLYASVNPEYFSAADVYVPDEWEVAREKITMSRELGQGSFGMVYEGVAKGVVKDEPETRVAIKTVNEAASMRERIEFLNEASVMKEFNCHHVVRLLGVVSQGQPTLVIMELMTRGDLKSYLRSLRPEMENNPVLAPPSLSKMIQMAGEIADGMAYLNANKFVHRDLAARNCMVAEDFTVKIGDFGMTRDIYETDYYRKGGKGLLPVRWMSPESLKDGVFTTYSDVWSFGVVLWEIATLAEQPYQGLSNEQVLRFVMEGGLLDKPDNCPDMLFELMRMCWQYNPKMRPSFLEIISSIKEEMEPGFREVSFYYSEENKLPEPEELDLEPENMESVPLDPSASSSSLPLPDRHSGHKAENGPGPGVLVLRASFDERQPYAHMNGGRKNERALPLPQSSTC

As a reminder, the pIC50 is −log10 of the IC50, conventionally taken in molar units. Turning to `Cc1ccc(OCC(=O)CNc2cc[nH]c(=O)c2C2Nc3cc4c(cc3N2)C(=O)N(C2CCN(CCS(C)(=O)=O)CC2)C4)c(C)c1` (stereo not drawn), the pIC50 was 4.70 to 5.30 with RPMI-8226; 5.30 to 6.00 in the assay with CPM2; at most 4.70 in [1]; over 6.30 in the assay with UTMC2; at most 4.70 in [2]; 6.00 to 6.30 with H929. For the same compound, the negative-log IC50 (pIC50) was 5.30 to 6.00 in the assay with KMS11; 5.30 to 6.00 in the assay on My7; 5.30 to 6.00 in the assay with JJN3; 6.00 to 6.30 in the assay with MM1s; 4.70 to 5.30 with My5; 4.70 to 5.30 in the assay on KMS18. The pIC50 in the assay on KMS12PE, in the assay with SKMM2, with U266 and in the assay with MM1r was 5.30 to 6.00 each time.
With `CC(=O)CCN1CCC(N2Cc3cc4nc(-c5c(NCC(=O)COc6ccc(C)cc6C)cc[nH]c5=O)[nH]c4cc3C2=O)CC1`, the negative-log IC50 (pIC50) in the assay on RPMI-8226 was 4.70 to 5.30; in the assay with CPM2, 5.30 to 6.00; in [1], at most 4.70; with UTMC2, over 6.30; in assay [2], at most 4.70; in the assay on H929, 5.30 to 6.00. The pIC50 in the assay with KMS11 was 4.70 to 5.30; in the assay with My7 it was 4.70 to 5.30; in the assay with JJN3, 4.70 to 5.30; in the assay on MM1s, 5.30 to 6.00; with My5, 4.70 to 5.30; in the assay with KMS18 it was 4.70 to 5.30. In addition, the negative-log IC50 (pIC50) in the assay on KMS12PE is 4.70 to 5.30; in the assay with SKMM2, 4.70 to 5.30; in the assay with U266, 5.30 to 6.00; in the assay on MM1r, 5.30 to 6.00.
Regarding `CN1CCC(N2C(=O)c3cc4nc(-c5c(NCC(O)c6ccncc6)cc[nH]c5=O)[nH]c4cc3C2=O)CC1` (stereo not drawn) [compound 7], the pIC50 on IGF1 receptor is under 4.82.
